Measured values: patent US7396837B2, “Antitumoral analogs of lamellarins” (Pharma Mar, S.A.U., priority 2002, dated 2008)

Columns and labels:
Format in all cases: cell-based
[1] = system: LoVo; experiment: SRB colorimetric cell growth inhibition assay, LoVo; settings: Homo sapiens
How it was run: (§1)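 Tested samples remained on human cancer cell cultures throughout the incubation; viable biomass was then stained with SRB and read colorimetrically.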

[2] = system: IGROV-ET; experiment: SRB colorimetric cell growth inhibition assay, IGROV-ET (ET-743 resistant); settings: Homo sapiens
How it was run: as §1

[3] = system: HT-29; experiment: SRB colorimetric cell growth inhibition assay, HT-29; settings: Homo sapiens
How it was run: as §1

[4] = system: IGROV; experiment: SRB colorimetric cell growth inhibition assay, IGROV; settings: Homo sapiens, IGROV
How it was run: as §1

[5] = system: SKOV-3; experiment: SRB colorimetric cell growth inhibition assay, SKOV-3; settings: Homo sapiens
Excerpt: Inhibition of Cell Growth by Colorimetric Assay.
A colorimetric type of assay, using sulforhodamine B (SRB) reaction has been adapted for a quantitative measurement of cell growth and viability (following the technique described by P. A. Skehan, et al., J. Natl. Cancer Inst. 1990, 82, 1107-1112).
This form of assay employs 96 well cell culture microplates of 9 mm diameter (T. Mosmann et al., J. of Immunological Methods 1983, 65, 55-63; G. T. Faircloth et al., J. of Tissue and Culture Methods 1988, 11, 201-205).
Most of the cell lines are obtained from American Type Culture Collection (ATCC) derived from different human cancer types.
The values for mean +/− SD of data from triplicate wells are calculated. Some parameters for cellular responses can be calculated: GI=growth inhibition, TGI=total growth inhibition (cytostatic effect) and LC=cell killing (cytotoxic effect).

[6] = system: K-562; experiment: SRB colorimetric cell growth inhibition assay, K-562; settings: Homo sapiens
How it was run: as §1

[7] = system: LoVo-Dox; experiment: SRB colorimetric cell growth inhibition assay, LoVo-Dox (MDR); settings: Homo sapiens
How it was run: as §1

[8] = system: DU-145; experiment: SRB colorimetric cell growth inhibition assay, DU-145; settings: Homo sapiens
How it was run: as §1

[9] = system: SK-MEL-28; experiment: SRB colorimetric cell growth inhibition assay, SK-MEL-28; settings: Homo sapiens
How it was run: as §1

[10] = system: A-549; experiment: SRB colorimetric cell growth inhibition assay, A-549; settings: Homo sapiens
How it was run: as §1

[11] = system: PANC-1; experiment: SRB colorimetric cell growth inhibition assay, PANC-1; settings: Homo sapiens
How it was run: as §1

[12] = system: SK-BR-3; experiment: SRB colorimetric cell growth inhibition assay, SK-BR-3; settings: Homo sapiens
How it was run: as §1

SMILES: COc1cc(-c2c3c4cc(OC)c(OC(=O)[C@@H](N)CCCCNC(=O)OCc5ccccc5)cc4oc(=O)c3n3ccc4c(OC(=O)[C@@H](N)CCCCNC(=O)OCc5ccccc5)c(OC)c(OC)cc4c23)ccc1OC(=O)[C@@H](N)CCCCNC(=O)OCc1ccccc1 [Compound 44]
- CC50 ([1]; LoVo, read-out: LC50 LOVO, LOVO, LC=cell killing (cytotoxic effect)): 7.6 µM
- GI50 ([1]; LOVO, GI=growth inhibition, read-out: GI50 LOVO): 0.374 µM
- IC (TGI) ([1]; LOVO, TGI=total growth inhibition (cytostatic effect), read-out: TGI LOVO): 3.18 µM
- GI50 ([2]; IGROV-ET, GI=growth inhibition, read-out: GI50 IGROV-ET): 1.18 µM
- IC (TGI) ([2]; IGROV-ET, TGI=total growth inhibition (cytostatic effect), read-out: TGI IGROV-ET): 3.58 µM
- CC50 ([2]; read-out: LC50 IGROV-ET, IGROV-ET, LC=cell killing (cytotoxic effect)): 7.6 µM
- CC50 ([3]; HT-29, read-out: LC50 HT-29, HT-29, LC=cell killing (cytotoxic effect)): 7.6 µM
- GI50 ([3]; HT-29, GI=growth inhibition, read-out: GI50 HT-29): 7.6 µM
- IC (TGI) ([3]; HT-29, TGI=total growth inhibition (cytostatic effect), read-out: TGI HT-29): 7.6 µM
- CC50 ([4]; read-out: LC50 IGROV, IGROV, LC=cell killing (cytotoxic effect)): 5.06 µM
- GI50 ([4]; GI=growth inhibition, read-out: GI50 IGROV): 1.06 µM
- IC (TGI) ([4]; TGI=total growth inhibition (cytostatic effect), read-out: TGI IGROV): 2.32 µM
- GI50 ([5]; SK-OV-3, read-out: GI50 SKOV-3): 0.0988 µM
- CC50 ([5]; SK-OV-3, read-out: LC50 SKOV-3): 7.6 µM
- IC (TGI) ([5]; SK-OV-3, read-out: TGI SKOV-3, SKOV-3, TGI=total growth inhibition (cytostatic effect)): 1.15 µM
- GI50 ([6]; K562, K-562, GI=growth inhibition, read-out: GI50 K-562): 0.182 µM
- IC (TGI) ([6]; K562, K-562, TGI=total growth inhibition (cytostatic effect), read-out: TGI K-562): 0.686 µM
- CC50 ([6]; K562, read-out: LC50 K-562, K-562, LC=cell killing (cytotoxic effect)): 5.36 µM
- GI50 ([7]; LOVO-DOX, GI=growth inhibition, read-out: GI50 LOVO-DOX): 0.608 µM
- CC50 ([7]; read-out: LC50 LOVO-DOX, LOVO-DOX, LC=cell killing (cytotoxic effect)): 7.6 µM
- IC (TGI) ([7]; LOVO-DOX, TGI=total growth inhibition (cytostatic effect), read-out: TGI LOVO-DOX): 2.51 µM
- CC50 ([8]; DU-145, read-out: LC50 DU-145, DU-145, LC=cell killing (cytotoxic effect)): 7.6 µM
- GI50 ([8]; DU-145, GI=growth inhibition, read-out: GI50 DU-145): 0.0485 µM
- IC (TGI) ([8]; DU-145, TGI=total growth inhibition (cytostatic effect), read-out: TGI DU-145): 0.273 µM
- GI50 ([9]; SK-MEL-28, MEL-28, GI=growth inhibition, read-out: GI50 MEL-28): 0.48 µM
- CC50 ([9]; SK-MEL-28, read-out: LC50 MEL-28, MEL-28, LC=cell killing (cytotoxic effect)): 7.6 µM
- IC (TGI) ([9]; SK-MEL-28, MEL-28, TGI=total growth inhibition (cytostatic effect), read-out: TGI MEL-28): 3.21 µM
- GI50 ([10]; A549, A-549, GI=growth inhibition, read-out: GI50 A-549): 5.44 µM
- IC (TGI) ([10]; A549, A-549, TGI=total growth inhibition (cytostatic effect), read-out: TGI A-549): 7.6 µM
- CC50 ([10]; A549, read-out: LC50 A-549, A-549, LC=cell killing (cytotoxic effect)): 7.6 µM
- IC (TGI) ([11]; PANC-1, PANC-1, TGI=total growth inhibition (cytostatic effect), read-out: TGI PANC-1): 4.35 µM
- CC50 ([11]; PANC-1, read-out: LC50 PANC-1, PANC-1, LC=cell killing (cytotoxic effect)): 7.6 µM
- GI50 ([11]; PANC-1, GI=growth inhibition, read-out: GI50 PANC-1): 1.17 µM
- CC50 ([12]; SK-BR-3, read-out: LC50 SK-BR-3, SK-BR-3, LC=cell killing (cytotoxic effect)): 7.6 µM
- GI50 ([12]; SK-BR-3, GI=growth inhibition, read-out: GI50 SK-BR-3): 0.122 µM
- IC (TGI) ([12]; SK-BR-3, TGI=total growth inhibition (cytostatic effect), read-out: TGI SK-BR-3): 0.866 µM
